Common to all, as to type: functional
One assay deals with HL-60(TB). Nature of the assay: Growth inhibition of Homo sapiens (human) HL-60(TB) cells at 10 uM after 48 hr by SRB assay. To be noted: HL-60, 48 h, read-out: GI. (In general: The SRB assay estimates cell density from bound dye.)
Another assay has as its system MOLT-4. The experiment in a line: Growth inhibition of Homo sapiens (human) MOLT4 cells at 10 uM after 48 hr by SRB assay. The note with it: MOLT-4, 48 h, read-out: GI.
The next assay deals with CCRF-CEM. The experiment in a line: Growth inhibition of Homo sapiens (human) CCRF-CEM cells at 10 uM after 48 hr by SRB assay. To be noted: read-out: GI.
The next assay relates to K562. Nature of the assay: Growth inhibition of Homo sapiens (human) K562 cells at 10 uM after 48 hr by SRB assay. The note with it: K562, 48 h, read-out: GI.
Another assay deals with SR. Nature of the assay: Growth inhibition of Homo sapiens (human) SR cells at 10 uM after 48 hr by SRB assay. The note with it: read-out: GI.
The test system of the next assay is A498. Nature of the assay: Growth inhibition of Homo sapiens (human) A498 cells at 10 uM after 48 hr by SRB assay. To be noted: A498, 48 h, read-out: GI.
In the next assay the test system is HOP-92. The experiment in a line: Growth inhibition of Homo sapiens (human) HOP92 cells at 10 uM after 48 hr by SRB assay. The note with it: HOP-92, 48 h, read-out: GI.
Another assay relates to BT-549. The experiment in a line: Growth inhibition of Homo sapiens (human) BT549 cells at 10 uM after 48 hr by SRB assay. To be noted: BT-549, 48 h, read-out: GI.
A further assay deals with CAKI-1. Nature of the assay: Growth inhibition of Homo sapiens (human) CAKI-1 cells at 10 uM after 48 hr by SRB assay. The note with it: CAKI-1, 48 h, read-out: GI.
A further assay has as its system PC-3. The experiment in a line: Growth inhibition of Homo sapiens (human) PC3 cells at 10 uM after 48 hr by SRB assay. The note with it: PC-3, 48 h, read-out: GI.
A further assay deals with RPMI-8226. Nature of the assay: Growth inhibition of Homo sapiens (human) RPMI8226 cells at 10 uM after 48 hr by SRB assay. The note with it: RPMI-8226, 48 h, read-out: GI.
For another assay, the system named is MDA-MB-468. The experiment in a line: Growth inhibition of Homo sapiens (human) MDA-MB-468 cells at 10 uM after 48 hr by SRB assay. To be noted: MDA-MB-468, 48 h, read-out: GI.
A further assay has as its system UO-31. The experiment in a line: Growth inhibition of Homo sapiens (human) UO31 cells at 10 uM after 48 hr by SRB assay. The note with it: UO-31, 48 h, read-out: GI.
The next assay has as its system NCI-H23. Nature of the assay: Growth inhibition of Homo sapiens (human) NCI-H23 cells at 10 uM after 48 hr by SRB assay. The note with it: NCI-H23, 48 h, read-out: GI.

Inhibition of growth data for eleven compounds are collected here from ChEMBL document CHEMBL3046164, “A facile synthesis of some 3-cyano-1,4,6-trisubstituted-2(1H)-pyridinones and their biological evaluation as anticancer agents” (2011).

SMILES strings stand for the structures.

Turning to `COc1ccc(-c2cc(-c3cccn3C)c(C#N)c(=O)n2C=O)cc1OC`, the inhibition of growth at 10 µM in the assay with HL-60(TB) came to 57.1%; with MOLT-4 it was 28.5%; with CCRF-CEM it was 47.1%; in the assay with K562, 21.4%.

Take `Cn1cccc1-c1cc(-c2ccc(Br)cc2)n(N=O)c(=O)c1C#N`: the inhibition of growth at 10 µM is 37.5% with SR, 25.7% in the assay on A498, 28.2% in the assay with HOP-92 and 32.8% in the assay on BT-549.

For the compound `COc1ccc(-c2cc(-c3cccn3C)c(C#N)c(=O)n2N=O)cc1OC`, the inhibition of growth at 10 µM was 26.8% in the assay on HOP-92 and 26.6% in the assay on K562.

As to `COc1ccc(-c2cc(-c3cccs3)n(N=O)c(=O)c2C#N)cc1`, the inhibition of growth at 10 µM in the assay on HOP-92 was 36.2%; with CCRF-CEM, 42%; in the assay on K562, 65.8%.

With `COc1ccc(-c2cc(-c3cccn3C)c(C#N)c(=O)n2C(=S)Nc2ccc(F)cc2)cc1OC`, the inhibition of growth at 10 µM with CAKI-1 was found to be 31.1%; in the assay with SR, 27.8%; in the assay on K562, 26.9%.

`CCn1c(-c2ccc(Br)cc2)cc(-c2cccn2C)c(C#N)c1=O`: the inhibition of growth at 10 µM in the assay on PC-3 came out at 28%; with RPMI-8226, 35%; with HOP-92 it was 28.3%; in the assay on MDA-MB-468, 30%; in the assay with CCRF-CEM, 62.5%.

For `Cn1cccc1-c1cc(-c2ccc(Br)cc2)n(Cc2ccccc2)c(=O)c1C#N`, the inhibition of growth at 10 µM is 32.5% in the assay on PC-3; 38.2% with RPMI-8226; 44.7% with HOP-92; 39.5% in the assay on CCRF-CEM; 45.4% in the assay on K562.

Take `CCn1c(-c2ccc(OC)c(OC)c2)cc(-c2cccn2C)c(C#N)c1=O`: the inhibition of growth at 10 µM with A498 stood at 44%; with HOP-92 it was 29%; in the assay on CCRF-CEM, 43.7%; in the assay with K562, 63.5%.

For the compound `COc1ccc(-c2cc(-c3cccn3C)c(C#N)c(=O)n2Cc2ccccc2)cc1OC`, the inhibition of growth at 10 µM with RPMI-8226 was 64.1%.

Regarding `COc1ccc(-c2cc(-c3cccs3)n(Cc3ccccc3)c(=O)c2C#N)cc1`, the inhibition of growth at 10 µM was determined as 23.5% in the assay with UO-31, 21% in the assay on NCI-H23, 26.8% with HOP-92 and 50.4% in the assay with K562.

With `Cn1cccc1-c1cc(-c2ccc(Br)cc2)n(S(=O)(=O)c2ccccc2)c(=O)c1C#N`, the inhibition of growth at 10 µM in the assay on HL-60(TB) stood at 59.7%; in the assay on MOLT-4, 26.6%; in the assay on NCI-H23, 22.2%; with HOP-92, 26%; in the assay on CCRF-CEM, 55.9%; in the assay with K562, 22.5%.
